Data as given in patent US20210045385A1, “PYRIDAZINONE-SUBSTITUTED KETOXIMES AS HERBICIDES” (FMC Corporation, priority 2018, published 2021).

Tests used:
Assay type in all cases: in vivo
[1] = tested on: Italian ryegrass (Lolium mutiflorum); experiment: Test C preemergence, visual plant response rating
Procedure, shortened: (§1)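 Seeds sown in a loam–sand blend got a directed preemergence soil spray; postemergence plants (2–10 cm, one- to two-leaf stage) were sprayed with compound in a non-phytotoxic solvent plus surfactant. Injury was scored visually against untreated controls after about 10 d in a greenhouse on a 0–100 scale (100 = complete control).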

[2] = tested on: barnyardgrass (Echinochloa crus-galli); experiment: Test C preemergence, visual plant response rating
Procedure, shortened: as §1

[3] = tested on: foxtail, giant (giant foxtail, Setaria faberi); experiment: Test C preemergence, visual plant response rating
Procedure, shortened: as §1

kochia (Bassia scoparia) [4] = experiment: Test C preemergence, visual plant response rating
Procedure, shortened: as §1

[5] = tested on: pigweed (Amaranthus retroflexus); experiment: Test C preemergence, visual plant response rating
Procedure, shortened: as §1

[6] = tested on: ragweed (common ragweed, Ambrosia artemisiifolia); experiment: Test C preemergence, visual plant response rating
Procedure, shortened: as §1

[7] = tested on: Italian ryegrass (Lolium mutiflorum); experiment: Test C postemergence, visual plant response rating
Procedure, shortened: as §1

[8] = tested on: barnyardgrass (Echinochloa crus-galli); experiment: Test C postemergence, visual plant response rating
Procedure, shortened: as §1

[9] = tested on: blackgrass (Alopecurus myosuroides); experiment: Test C postemergence, visual plant response rating
Procedure, shortened: as §1

corn (Zea mays) = experiment: Test C postemergence, visual plant response rating
Procedure, shortened: as §1

[10] = tested on: foxtail, giant (giant foxtail, Setaria faberi); experiment: Test C postemergence, visual plant response rating
Procedure, shortened: as §1

[11] = tested on: galium (catchweed bedstraw, Galium aparine); experiment: Test C postemergence, visual plant response rating
Procedure, shortened: as §1

kochia (Bassia scoparia) [12] = experiment: Test C postemergence, visual plant response rating
Procedure, shortened: as §1

[13] = tested on: pigweed (Amaranthus retroflexus); experiment: Test C postemergence, visual plant response rating
Procedure, shortened: as §1

[14] = tested on: ragweed (common ragweed, Ambrosia artemisiifolia); experiment: Test C postemergence, visual plant response rating
Procedure, shortened: as §1

[15] = tested on: wheat (Triticum aestivum); experiment: Test C postemergence, visual plant response rating
Procedure, shortened: as §1

[16] = tested on: barnyardgrass (Echinochloa crus-galli); experiment: Test D flooded paddy test, visual plant response rating; settings: 250 g ai/ha, scale 0 to 100 (0 no effect, 100 complete control), 13 to 15 d
Procedure, shortened: (§2)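 Plants grown to the 2-leaf stage; pots flooded to 3 cm above soil and compound applied directly into paddy water, depth held throughout. Kept in greenhouse 13 to 15 d, then rated visually against untreated controls on a 0–100 scale (0 no effect, 100 complete control).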

[17] = tested on: duck salad (Heteranthera limosa); experiment: as above; settings: 250 g ai/ha, scale 0 to 100 (0 no effect, 100 complete control), 13 to 15 d
Procedure, shortened: as §2

rice (Oryza sativa) = experiment: as above; settings: 250 g ai/ha, scale 0 to 100 (0 no effect, 100 complete control), 13 to 15 d
Procedure, shortened: as §2

[18] = tested on: sedge umbrella (small-flower umbrella sedge, Cyperus difformis); experiment: as above; settings: 250 g ai/ha, scale 0 to 100 (0 no effect, 100 complete control), 13 to 15 d
Procedure, shortened: as §2

[19] = Test C, 31 g ai/ha, 0 is no effect, 100 is complete control
[20] = Test C, 125 g ai/ha, 0 is no effect, 100 is complete control
[21] = Test C, postemergence, 125 g ai/ha

Compound | Ryegrass, Italian plant response rating (0 to 100 scale) [1, 19] | Barnyardgrass plant response rating (0 to 100 scale) [2, 19] | Foxtail, Giant plant response rating (0 to 100 scale) [3, 19] | Kochia plant response rating (0 to 100 scale) (kochia (Bassia scoparia) [4]; [19]) | Pigweed plant response rating (0 to 100 scale) [5, 19] | Ragweed plant response rating (0 to 100 scale) [6, 19] | Ryegrass, Italian plant response rating (0 to 100 scale) ([7]; Postemergence, 31 g ai/ha) | Ryegrass, Italian plant response rating (0 to 100 scale) [7, 21] | Barnyardgrass plant response rating (0 to 100 scale) ([8]; Postemergence, 31 g ai/ha) | Barnyardgrass plant response rating (0 to 100 scale) [8, 21] | Blackgrass plant response rating (0 to 100 scale) ([9]; Postemergence, 31 g ai/ha) | Blackgrass plant response rating (0 to 100 scale) [9, 21] | Corn plant response rating (0 to 100 scale) (corn (Zea mays); Postemergence, 31 g ai/ha) | Corn plant response rating (0 to 100 scale) (corn (Zea mays); [21]) | Foxtail, Giant plant response rating (0 to 100 scale) ([10]; Postemergence, 31 g ai/ha) | Foxtail, Giant plant response rating (0 to 100 scale) [10, 21] | Galium plant response rating (0 to 100 scale) ([11]; Postemergence, 31 g ai/ha) | Galium plant response rating (0 to 100 scale) [11, 21] | Kochia plant response rating (0 to 100 scale) (kochia (Bassia scoparia) [12]; Postemergence, 31 g ai/ha) | Kochia plant response rating (0 to 100 scale) (kochia (Bassia scoparia) [12]; [21]) | further results
CO/N=C(\c1cccc(/C=C/Cl)c1)c1c(O)c(C)nn(C)c1=O [Compound 286] | 0 | 60 | 0 | 0 | 0 | 0 | 0 | 0 | 0 | 30 | 20 | 0 | 0 | 0 | 0 | 20 | 50 | 60 | 10 | 30 | Ryegrass, Italian plant response rating (0 to 100 scale) [1, 20]: 10; Barnyardgrass plant response rating (0 to 100 scale) [2, 20]: 90; Foxtail, Giant plant response rating (0 to 100 scale) [3, 20]: 50; Kochia plant response rating (0 to 100 scale) (kochia (Bassia scoparia) [4]; [20]): 0; Pigweed plant response rating (0 to 100 scale) [5, 20]: 10; Ragweed plant response rating (0 to 100 scale) [6, 20]: 20; Pigweed plant response rating (0 to 100 scale) ([13]; Postemergence, 31 g ai/ha): 20; Pigweed plant response rating (0 to 100 scale) [13, 21]: 50; Ragweed plant response rating (0 to 100 scale) ([14]; Postemergence, 31 g ai/ha): 30; Ragweed plant response rating (0 to 100 scale) [14, 21]: 50; Wheat plant response rating (0 to 100 scale) ([15]; Postemergence, 31 g ai/ha): 30; Wheat plant response rating (0 to 100 scale) [15, 21]: 30; Plant response rating, Barnyardgrass (Flood) [16]: 0; Plant response rating, Ducksalad (Flood) [17]: 0; Plant response rating, Rice (Flood) (rice (Oryza sativa)): 0; Plant response rating, Sedge, Umbrella (Flood) [18]: 0
C#CCO/N=C(\c1ccc(F)c(Br)c1)c1c(O)c(C)nn(C)c1=O [Compound 164] | 0 | 0 | 10 | 0 | 70 | 0 | 0 | 70 | 30 | 60 | 30 | 50 | 10 | 30 | 10 | 70 | 60 | 70 | 30 | 70 | Ryegrass, Italian plant response rating (0 to 100 scale) ([1]; 125 g ai/ha): 30; Barnyardgrass plant response rating (0 to 100 scale) ([2]; 125 g ai/ha): 50; Foxtail, Giant plant response rating (0 to 100 scale) ([3]; 125 g ai/ha): 50; Kochia plant response rating (0 to 100 scale) (kochia (Bassia scoparia) [4]; 125 g ai/ha): 50; Pigweed plant response rating (0 to 100 scale) ([5]; 125 g ai/ha): 90; Ragweed plant response rating (0 to 100 scale) ([6]; 125 g ai/ha): 30; Pigweed plant response rating (0 to 100 scale) ([13]; Postemergence, 31 g ai/ha): 50; Pigweed plant response rating (0 to 100 scale) [13, 21]: 70; Ragweed plant response rating (0 to 100 scale) ([14]; Postemergence, 31 g ai/ha): 20; Ragweed plant response rating (0 to 100 scale) [14, 21]: 50; Wheat plant response rating (0 to 100 scale) ([15]; Postemergence, 31 g ai/ha): 20; Wheat plant response rating (0 to 100 scale) [15, 21]: 80; Plant response rating, Barnyardgrass (Flood) [16]: 0; Plant response rating, Ducksalad (Flood) [17]: 0; Plant response rating, Rice (Flood) (rice (Oryza sativa)): 0; Plant response rating, Sedge, Umbrella (Flood) [18]: 0
